Assay results published in ChEMBL document CHEMBL5096234, “Discovery, Optimization, and Evaluation of Selective CDK4/6 Inhibitors for the Treatment of Breast Cancer” (J Med Chem, 2022).
pIC50: −log10 of the molar value.

Experiments:
CDK6/cyclin D1 = CDK6/cyclin D1 (Homo sapiens, UniProt Q00534); test: Inhibition of CDK6/cyclin-D1 (unknown origin) in presence of ATP by time resolved-FRET assay; assay type: protein-complex assay
CDK7/Cyclin H/MNAT1 = CDK7/Cyclin H/MNAT1 (Homo sapiens, UniProt P50613); test: Inhibition of CDK7/cyclin H/MAT1 (unknown origin) in presence of ATP by time resolved-FRET assay; assay type: protein-complex assay
MCF7 [1] = test: Antiproliferative activity against human MCF7 cells assessed as cell growth inhibition incubated for 72 hrs by CCK-8 assay; assay type: functional
[2] = Inhibition of CDK1/cyclin B (unknown origin) in presence of ATP by time resolved-FRET assay; set-up: species or system Homo sapiens
CDK2/Cyclin A2 = CDK2/Cyclin A2 (Homo sapiens, UniProt P24941); test: Inhibition of CDK2/Cyclin A (unknown origin) in presence of ATP by time resolved-FRET assay; assay type: protein-complex assay
CDK9/cyclin T1 = CDK9/cyclin T1 (Homo sapiens, UniProt P50750); test: Inhibition of CDK9/Cyclin T1 (unknown origin) in presence of ATP by time resolved-FRET assay; assay type: protein-complex assay
CDK4/Cyclin D3 = CDK4/Cyclin D3 (Homo sapiens, UniProt P11802); test: Inhibition of CDK4/cyclin-D3 (unknown origin) in presence of ATP by time resolved-FRET assay; assay type: protein-complex assay
MCF7 [3] = test: Induction of cell cycle arrest in human MCF7 cells assessed as accumulation of cells at G1 phase at 2.5 uM incubated for 24 hrs by propidium iodide staining based flow cytometry analysis (reference value: 57.38%); assay type: functional
ZR-75-1 = test: Antiproliferative activity against human ZR-75-1 cells assessed as cell growth inhibition incubated for 72 hrs by CCK-8 assay; assay type: functional
T47D [4] = test: Induction of cell cycle arrest in human T47D cells assessed as accumulation of cells at G2 phase at 1.5 uM incubated for 24 hrs by propidium iodide staining based flow cytometry analysis (reference value: 16.57%); assay type: functional
MCF7 [5] = test: Induction of cell cycle arrest in human MCF7 cells assessed as accumulation of cells at G2 phase at 2.5 uM incubated for 24 hrs by propidium iodide staining based flow cytometry analysis (reference value: 29.66%); assay type: functional
T47D [6] = test: Antiproliferative activity against human T47D cells assessed as cell growth inhibition incubated for 72 hrs by CCK-8 assay; assay type: functional
T47D [7] = test: Induction of cell cycle arrest in human T47D cells assessed as accumulation of cells at G1 phase at 1.5 uM incubated for 24 hrs by propidium iodide staining based flow cytometry analysis (reference value: 69.55 %); assay type: functional
MCF-10A = test: Antiproliferative activity against human MCF-10A cells assessed as cell growth inhibition incubated for 72 hrs by CCK-8 assay; assay type: functional
MCF7 [8] = test: Induction of cell cycle arrest in human MCF7 cells assessed as accumulation of cells at G1 phase at 1.5 uM incubated for 24 hrs by propidium iodide staining based flow cytometry analysis (reference value: 57.38%); assay type: functional
MCF7 [9] = test: Induction of cell cycle arrest in human MCF7 cells assessed as accumulation of cells at G2 phase at 1.5 uM incubated for 24 hrs by propidium iodide staining based flow cytometry analysis (reference value: 29.66%); assay type: functional

CDK4/Cyclin D3, sequence (P11802 whole entry): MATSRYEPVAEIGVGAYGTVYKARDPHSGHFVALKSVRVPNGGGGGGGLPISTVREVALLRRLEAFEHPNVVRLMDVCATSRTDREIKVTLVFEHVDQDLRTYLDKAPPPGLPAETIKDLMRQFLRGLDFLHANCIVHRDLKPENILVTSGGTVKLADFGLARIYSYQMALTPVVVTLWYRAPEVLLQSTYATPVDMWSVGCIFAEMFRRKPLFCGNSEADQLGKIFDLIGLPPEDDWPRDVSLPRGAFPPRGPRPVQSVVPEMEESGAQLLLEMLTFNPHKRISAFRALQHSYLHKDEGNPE
CDK4/Cyclin D3, sequence (P30281 whole entry, further chain): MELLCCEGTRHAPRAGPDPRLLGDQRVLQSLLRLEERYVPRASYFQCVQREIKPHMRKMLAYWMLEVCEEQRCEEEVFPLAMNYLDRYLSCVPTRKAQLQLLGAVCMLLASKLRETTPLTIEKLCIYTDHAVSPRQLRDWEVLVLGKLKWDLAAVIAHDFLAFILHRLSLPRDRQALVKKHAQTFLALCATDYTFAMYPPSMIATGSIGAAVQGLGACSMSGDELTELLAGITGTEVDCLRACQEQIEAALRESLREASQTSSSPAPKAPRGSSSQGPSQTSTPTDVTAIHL
CDK6/cyclin D1, sequence (P24385 whole entry): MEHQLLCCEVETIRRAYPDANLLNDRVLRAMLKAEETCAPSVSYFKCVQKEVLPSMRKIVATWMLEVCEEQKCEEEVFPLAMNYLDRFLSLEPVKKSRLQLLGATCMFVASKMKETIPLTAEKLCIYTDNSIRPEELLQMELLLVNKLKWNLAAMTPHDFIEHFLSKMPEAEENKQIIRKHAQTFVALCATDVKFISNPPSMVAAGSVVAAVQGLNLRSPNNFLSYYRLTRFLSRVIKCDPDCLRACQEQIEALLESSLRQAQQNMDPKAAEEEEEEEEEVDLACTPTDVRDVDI
CDK6/cyclin D1, sequence (Q00534 whole entry): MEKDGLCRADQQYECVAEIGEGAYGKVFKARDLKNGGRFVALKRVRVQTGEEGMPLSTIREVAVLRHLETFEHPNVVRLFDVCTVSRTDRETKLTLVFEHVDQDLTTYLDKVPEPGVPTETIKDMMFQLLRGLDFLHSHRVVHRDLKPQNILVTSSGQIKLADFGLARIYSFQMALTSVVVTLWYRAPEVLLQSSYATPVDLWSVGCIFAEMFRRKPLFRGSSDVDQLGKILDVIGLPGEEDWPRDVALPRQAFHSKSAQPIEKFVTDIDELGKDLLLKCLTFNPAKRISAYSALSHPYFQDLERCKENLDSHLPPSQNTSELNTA
CDK7/Cyclin H/MNAT1, sequence (P51946 whole entry): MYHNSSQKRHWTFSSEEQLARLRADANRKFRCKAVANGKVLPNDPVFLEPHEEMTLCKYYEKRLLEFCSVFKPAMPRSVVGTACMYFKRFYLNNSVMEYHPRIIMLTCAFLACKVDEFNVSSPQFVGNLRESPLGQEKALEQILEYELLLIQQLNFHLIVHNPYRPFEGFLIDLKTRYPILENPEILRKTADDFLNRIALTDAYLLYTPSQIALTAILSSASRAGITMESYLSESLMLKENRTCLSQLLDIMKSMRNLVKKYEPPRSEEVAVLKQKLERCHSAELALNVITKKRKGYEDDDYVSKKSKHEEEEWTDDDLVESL
CDK7/Cyclin H/MNAT1, sequence (P50613 whole entry): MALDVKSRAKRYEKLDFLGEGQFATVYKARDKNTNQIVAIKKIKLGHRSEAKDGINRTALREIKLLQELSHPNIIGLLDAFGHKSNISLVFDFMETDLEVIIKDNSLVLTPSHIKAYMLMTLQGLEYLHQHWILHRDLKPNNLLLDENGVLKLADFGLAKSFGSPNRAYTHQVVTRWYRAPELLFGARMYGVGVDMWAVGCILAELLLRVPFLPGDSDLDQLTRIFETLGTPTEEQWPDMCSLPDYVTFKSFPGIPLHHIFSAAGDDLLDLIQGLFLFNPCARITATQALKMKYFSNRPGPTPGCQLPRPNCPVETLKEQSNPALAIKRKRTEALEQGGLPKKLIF
CDK7/Cyclin H/MNAT1, sequence (P51948 whole entry, further chain): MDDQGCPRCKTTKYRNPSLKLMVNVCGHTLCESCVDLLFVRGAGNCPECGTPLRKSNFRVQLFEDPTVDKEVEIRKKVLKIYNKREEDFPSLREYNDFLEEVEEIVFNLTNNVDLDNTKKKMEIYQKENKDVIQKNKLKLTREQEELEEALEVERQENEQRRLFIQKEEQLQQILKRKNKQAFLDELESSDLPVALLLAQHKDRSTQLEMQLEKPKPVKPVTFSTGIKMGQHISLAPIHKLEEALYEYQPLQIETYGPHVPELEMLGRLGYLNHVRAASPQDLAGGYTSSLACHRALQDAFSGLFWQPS
CDK9/cyclin T1, sequence (O60563 whole entry): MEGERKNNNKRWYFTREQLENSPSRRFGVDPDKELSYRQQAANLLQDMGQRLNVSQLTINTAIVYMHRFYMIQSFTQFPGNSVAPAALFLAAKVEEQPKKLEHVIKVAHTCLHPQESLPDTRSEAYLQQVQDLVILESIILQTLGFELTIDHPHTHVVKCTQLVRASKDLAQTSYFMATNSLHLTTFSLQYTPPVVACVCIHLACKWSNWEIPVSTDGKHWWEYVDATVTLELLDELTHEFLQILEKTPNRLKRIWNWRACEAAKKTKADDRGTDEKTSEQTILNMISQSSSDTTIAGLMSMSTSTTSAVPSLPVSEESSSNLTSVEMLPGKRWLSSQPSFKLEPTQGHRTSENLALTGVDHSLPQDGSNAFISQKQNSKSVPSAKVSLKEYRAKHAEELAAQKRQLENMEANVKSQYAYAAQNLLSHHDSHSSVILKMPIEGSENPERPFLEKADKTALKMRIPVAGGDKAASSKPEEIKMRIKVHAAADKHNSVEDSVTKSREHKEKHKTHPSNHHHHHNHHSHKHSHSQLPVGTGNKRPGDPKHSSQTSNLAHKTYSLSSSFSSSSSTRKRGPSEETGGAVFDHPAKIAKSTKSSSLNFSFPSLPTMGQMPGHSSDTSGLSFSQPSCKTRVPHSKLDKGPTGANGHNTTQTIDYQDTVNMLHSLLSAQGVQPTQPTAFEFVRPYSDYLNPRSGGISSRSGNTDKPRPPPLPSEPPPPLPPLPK
CDK9/cyclin T1, sequence (P50750 whole entry): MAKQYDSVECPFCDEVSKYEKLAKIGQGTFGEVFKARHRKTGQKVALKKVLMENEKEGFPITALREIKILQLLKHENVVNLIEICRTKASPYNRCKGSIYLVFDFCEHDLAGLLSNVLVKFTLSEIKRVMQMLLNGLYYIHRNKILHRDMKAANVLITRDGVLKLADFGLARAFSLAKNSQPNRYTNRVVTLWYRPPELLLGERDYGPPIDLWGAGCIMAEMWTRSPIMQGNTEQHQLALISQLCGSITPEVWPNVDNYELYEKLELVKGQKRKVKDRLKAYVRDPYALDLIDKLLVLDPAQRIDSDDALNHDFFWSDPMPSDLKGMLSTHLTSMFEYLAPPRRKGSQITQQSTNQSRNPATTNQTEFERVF

SMILES: CCN1CCN(C(=O)c2ccc(Nc3ncc(F)c(-c4ccc5c(c4)CCC(=O)N5C(C)C)n3)nc2)CC1
- pIC50 (CDK6/cyclin D1): 5.43

SMILES: CC(C)N1CCN(Cc2ccc(Nc3ncc(F)c(-c4ccc5c(c4)OCCO5)n3)nc2)CC1
- pIC50 (CDK6/cyclin D1): 6.86

SMILES: O=C1NCCc2cc(-c3nc(Nc4ccc(N5CCNCC5)cn4)ncc3F)ccc21
- pIC50 (CDK7/Cyclin H/MNAT1): 5.08
- GI50 (MCF7 [1]): 2900 nM
- pIC50 (CDK6/cyclin D1): 7.44
- pIC50 [2]: 6.83
- pIC50 (CDK2/Cyclin A2): 6.76
- pIC50 (CDK9/cyclin T1): 6.42
- pIC50 (CDK4/Cyclin D3): 8.10

SMILES: CC(C)(C)OC(=O)N1CCN(c2ccc(Nc3ncc(F)c(-c4ccc5c(c4)OCCO5)n3)nc2)CC1
- pIC50 (CDK6/cyclin D1): < 5.00

SMILES: CC(C)N1CCN(Cc2ccc(Nc3ncc(F)c(-c4ccc5c(c4)CCC(=O)N5C(C)C)n3)nc2)CC1
- pIC50 (CDK6/cyclin D1): < 6.00

SMILES: Fc1cnc(Nc2ccc(N3CCNCC3)cn2)nc1-c1ccc2c(c1)OCO2
- pIC50 (CDK6/cyclin D1): 6.92

SMILES: CCN1CCN(Cc2ccc(Nc3ncc(F)c(-c4ccc5c(c4)OCO5)n3)nc2)CC1
- pIC50 (CDK6/cyclin D1): 6.60

SMILES: CC(C)N1CCN(C(=O)c2ccc(Nc3ncc(F)c(-c4ccc5c(c4)CCC(=O)N5C(C)C)n3)nc2)CC1
- pIC50 (CDK6/cyclin D1): < 6.00

SMILES: CN1CCc2cc(-c3nc(Nc4ccc(N5CCNCC5)cn4)ncc3F)ccc2C1=O
- pIC50 (CDK7/Cyclin H/MNAT1): < 5.00
- GI50 (MCF7 [1]): 2970 nM
- pIC50 (CDK6/cyclin D1): 7.49
- pIC50 [2]: 5.92
- pIC50 (CDK2/Cyclin A2): 6.17
- pIC50 (CDK9/cyclin T1): 5.98
- pIC50 (CDK4/Cyclin D3): 8.52

SMILES: CCN1CCN(C(=O)c2ccc(Nc3ncc(F)c(-c4ccc5c(c4)OCO5)n3)nc2)CC1
- pIC50 (CDK6/cyclin D1): 6.48

SMILES: CC(C)N1CCN(C(=O)c2ccc(Nc3ncc(F)c(-c4ccc5c(c4)OCCC5=O)n3)nc2)CC1
- pIC50 (CDK6/cyclin D1): 6.44

SMILES: CN1CCN(c2ccc(Nc3ncc(F)c(-c4ccc5c(c4)OCO5)n3)nc2)CC1
- pIC50 (CDK6/cyclin D1): 5.94

SMILES: O=C(c1ccc(Nc2ncc(F)c(-c3ccc4c(c3)OCCO4)n2)nc1)N1CCNCC1
- pIC50 (CDK6/cyclin D1): 6.93

SMILES: CC(C)(C)OC(=O)N1CCN(c2ccc(Nc3ncc(F)c(-c4ccc5c(c4)OCO5)n3)nc2)CC1
- pIC50 (CDK6/cyclin D1): < 5.00

SMILES: CCN1CCN(C(=O)c2ccc(Nc3ncc(F)c(-c4ccc5c(c4)CCN(C(C)C)C5=O)n3)nc2)CC1
- pIC50 (CDK6/cyclin D1): 6.50

SMILES: CCN1CCN(Cc2ccc(Nc3ncc(F)c(-c4ccc5c(c4)OCCO5)n3)nc2)CC1
- GI50 (MCF7 [1]): 4710 nM
- pIC50 (CDK6/cyclin D1): 7.01
- pIC50 (CDK4/Cyclin D3): 7.10

SMILES: CCN1CCN(C(=O)c2ccc(Nc3ncc(F)c(-c4ccc5c(c4)CCNC5=O)n3)nc2)CC1
- GI50 (MCF7 [1]): 3240 nM
- pIC50 (CDK6/cyclin D1): 7.22
- pIC50 (CDK4/Cyclin D3): 7.68

SMILES: CC(C)(C)OC(=O)N1CCN(C(=O)c2ccc(Nc3ncc(F)c(-c4ccc5c(c4)OCCO5)n3)nc2)CC1
- pIC50 (CDK6/cyclin D1): < 5.00

SMILES: Fc1cnc(Nc2ccc(N3CCNCC3)cn2)nc1-c1ccc2c(c1)OCCO2
- GI50 (MCF7 [1]): 3760 nM
- pIC50 (CDK6/cyclin D1): 7.09
- pIC50 (CDK4/Cyclin D3): 7.44

SMILES: CC(=O)c1c(C)c2cnc(Nc3ccc(N4CCNCC4)cn3)nc2n(C2CCCC2)c1=O [PALBOCICLIB]
- Activity (MCF7 [3]): 81.49%
- GI50 (MCF7 [1]): 3940 nM
- GI50 (ZR-75-1): 2280 nM
- Activity (T47D [4]): 6.13%
- Activity (MCF7 [5]): 14.51%
- GI50 (T47D [6]): 1060 nM
- Activity (T47D [7]): 84.74%
- GI50 (MCF-10A): 19100 nM

SMILES: CC(C)(C)OC(=O)N1CCN(Cc2ccc(Nc3ncc(F)c(-c4ccc5c(c4)OCCO5)n3)nc2)CC1
- pIC50 (CDK6/cyclin D1): < 5.00

SMILES: Fc1cnc(Nc2ccc(CN3CCNCC3)cn2)nc1-c1ccc2c(c1)OCCO2
- pIC50 (CDK6/cyclin D1): 6.87

SMILES: CCN1CCN(C(=O)c2ccc(Nc3ncc(F)c(-c4ccc5c(c4)OCCO5)n3)nc2)CC1
- pIC50 (CDK6/cyclin D1): 6.95

SMILES: CC(C)N1CCN(Cc2ccc(Nc3ncc(F)c(-c4ccc5c(c4)CCN(C(C)C)C5=O)n3)nc2)CC1
- pIC50 (CDK6/cyclin D1): 6.19

SMILES: CN1CCN(c2ccc(Nc3ncc(F)c(-c4ccc5c(c4)OCCO5)n3)nc2)CC1
- pIC50 (CDK6/cyclin D1): 6.18

SMILES: CC(C)N1CCc2cc(-c3nc(Nc4ccc(N5CCNCC5)cn4)ncc3F)ccc2C1=O
- pIC50 (CDK7/Cyclin H/MNAT1): 5.06
- GI50 (MCF7 [1]): 3070 nM
- pIC50 (CDK6/cyclin D1): 7.38
- pIC50 [2]: 5.16
- pIC50 (CDK2/Cyclin A2): 6.31
- pIC50 (CDK9/cyclin T1): 5.71
- pIC50 (CDK4/Cyclin D3): 7.85

SMILES: CC(C)N1CCN(C(=O)c2ccc(Nc3ncc(F)c(-c4ccc5c(c4)OCCO5)n3)nc2)CC1
- pIC50 (CDK6/cyclin D1): 6.98

SMILES: CC(C)N1CCN(C(=O)c2ccc(Nc3ncc(F)c(-c4ccc5c(c4)OCO5)n3)nc2)CC1
- pIC50 (CDK6/cyclin D1): 6.53

SMILES: CCN1CCN(Cc2ccc(Nc3ncc(F)c(-c4cc(F)c5nc(C)n(C(C)C)c5c4)n3)nc2)CC1 [ABEMACICLIB]
- GI50 (MCF7 [1]): 832 nM
- Activity (T47D [4]): 9.32%
- GI50 (T47D [6]): 771 nM
- Activity (MCF7 [8]): 77.44%
- Activity (T47D [7]): 81.8%
- Activity (MCF7 [9]): 17.65%
- GI50 (MCF-10A): 5090 nM

SMILES: CCN1CCN(C(=O)c2ccc(Nc3ncc(F)c(-c4ccc5c(c4)OCCC5=O)n3)nc2)CC1
- pIC50 (CDK6/cyclin D1): 6.47
